Paper PMC6176332, “Studies on the Interaction between Three Small Flavonoid Molecules and Bovine Lactoferrin” (BioMed Research International, 2018)

Target: T1, bovine lactoferrin (BLF) (Bos taurus, UniProt P24627)
T1 construct: gene LTF
Assay: intrinsic fluorescence quenching (excitation […] nm), double-log plot
Format: binding
Conditions: 0.05 M phosphate buffer, pH 7.4, 300 K, about 1% ethanol; n = 1.076; in 1/M

T1 sequence (P24627 20-708): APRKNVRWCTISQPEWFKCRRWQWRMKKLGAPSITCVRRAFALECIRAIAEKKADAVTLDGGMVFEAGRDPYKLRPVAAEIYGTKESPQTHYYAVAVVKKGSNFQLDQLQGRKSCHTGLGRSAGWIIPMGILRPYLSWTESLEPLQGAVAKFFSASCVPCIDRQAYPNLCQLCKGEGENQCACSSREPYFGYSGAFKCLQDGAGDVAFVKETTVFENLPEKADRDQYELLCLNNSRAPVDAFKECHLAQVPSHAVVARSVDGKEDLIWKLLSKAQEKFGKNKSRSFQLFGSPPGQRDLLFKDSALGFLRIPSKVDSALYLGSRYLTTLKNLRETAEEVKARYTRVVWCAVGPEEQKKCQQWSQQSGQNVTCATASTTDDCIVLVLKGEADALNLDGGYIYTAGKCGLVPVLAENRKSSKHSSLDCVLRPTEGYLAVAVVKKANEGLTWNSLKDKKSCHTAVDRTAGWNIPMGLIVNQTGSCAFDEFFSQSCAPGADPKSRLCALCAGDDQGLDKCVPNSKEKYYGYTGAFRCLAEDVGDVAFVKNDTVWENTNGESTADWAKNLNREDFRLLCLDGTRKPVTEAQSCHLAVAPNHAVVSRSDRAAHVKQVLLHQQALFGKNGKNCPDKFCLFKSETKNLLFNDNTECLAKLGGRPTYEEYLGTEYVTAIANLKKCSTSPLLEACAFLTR

Ka (×10^4M^-1): 3.05 ×10^4
Structure (SMILES): O=C1C[C@@H](c2ccc(O)cc2)Oc2cc(O)cc(O)c21 [Naringenin]
